Activity calls are given as the source filed them.
Tests used:
[1] = cytotoxicity toward NIH3T3 fibroblasts, dose response, counter-screen, cell-based, ATP luminescence, mouse fibroblasts (AID 2010); format: functional;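 further: cells exposed to compound for about 90 hours before reading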
[2] = inhibitors of intracellular T. cruzi replication, confirmation, NIH3T3 host cells, beta-gal luminescence (AID 2044); format: functional, cell-based;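 further: intracellular parasites grown in NIH/3T3 mouse fibroblasts as host cells; luminescent beta-galactosidase reporter signal from transgenic T. cruzi replicating inside host cells; inhibitors lower the luminescence signal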
[3] = target: Cytochrome P450 3A4 (Homo sapiens, UniProt P08684);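 further: CYP3A4 tested as one member of a cytochrome P450 panel screen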
Chain of Cytochrome P450 3A4 (P08684 whole entry): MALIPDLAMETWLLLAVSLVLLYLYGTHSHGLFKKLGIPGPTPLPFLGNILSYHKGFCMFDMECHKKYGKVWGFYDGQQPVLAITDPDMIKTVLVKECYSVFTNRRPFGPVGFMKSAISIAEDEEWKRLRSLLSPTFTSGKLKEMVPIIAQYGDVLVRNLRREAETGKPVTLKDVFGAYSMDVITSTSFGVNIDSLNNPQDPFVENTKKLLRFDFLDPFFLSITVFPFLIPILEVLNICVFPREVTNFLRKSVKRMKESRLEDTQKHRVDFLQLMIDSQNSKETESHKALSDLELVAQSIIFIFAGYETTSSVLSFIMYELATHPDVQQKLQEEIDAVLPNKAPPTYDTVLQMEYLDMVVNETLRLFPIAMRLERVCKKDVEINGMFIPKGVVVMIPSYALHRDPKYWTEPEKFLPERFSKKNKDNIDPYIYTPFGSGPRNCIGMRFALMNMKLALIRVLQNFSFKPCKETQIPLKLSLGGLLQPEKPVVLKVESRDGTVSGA

[4] = target: Cytochrome P450 2C9 (Homo sapiens, UniProt P11712)
Chain of Cytochrome P450 2C9 (P11712 whole entry): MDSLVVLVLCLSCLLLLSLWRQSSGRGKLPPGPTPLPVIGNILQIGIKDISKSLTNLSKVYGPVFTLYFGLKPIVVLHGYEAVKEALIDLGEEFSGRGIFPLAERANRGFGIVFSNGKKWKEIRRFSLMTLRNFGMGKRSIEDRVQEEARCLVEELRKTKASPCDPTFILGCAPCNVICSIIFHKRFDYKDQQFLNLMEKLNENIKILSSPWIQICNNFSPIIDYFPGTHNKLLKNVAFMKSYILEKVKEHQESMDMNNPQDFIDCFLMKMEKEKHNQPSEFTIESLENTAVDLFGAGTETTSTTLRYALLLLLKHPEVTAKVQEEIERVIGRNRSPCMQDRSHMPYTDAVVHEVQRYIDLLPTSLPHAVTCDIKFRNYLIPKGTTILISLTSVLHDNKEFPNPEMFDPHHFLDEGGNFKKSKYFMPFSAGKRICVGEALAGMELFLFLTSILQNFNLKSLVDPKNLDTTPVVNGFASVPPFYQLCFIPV

Structure (SMILES) | EC50 [1] | EC50 [2] | AC50 [3] | AC50 [4]
COc1ccccc1CN1CCCC(N2CCN(c3ccc(F)cc3)CC2)C1 (configuration not stated) | 10.1 µM (active) | 0.253 µM (active) |  | 
Cc1c(C)n(CCCN(C)C)c2ncnc(NC3CCCCC3)c12 | > 60 µM (not active) | 0.603 µM (active) |  | 
O=C(CCN1CCN(C/C=C/c2ccccc2)CC1)Nc1ccccc1 | > 60 µM (not active) | 1.95 µM (active) |  | 
Cn1c(SC2CCCCC2=O)nnc1-c1ccncc1 (configuration not stated) |  |  | 25.1 µM (inconclusive) | 
CN1CCN(NC(=O)c2cc([N+](=O)[O-])cc([N+](=O)[O-])c2)CC1 | > 30 µM (not active) | 2.33 µM (active) |  | 
CCOc1ccccc1CN1CCN(Cc2nc3ccccc3s2)CC1CCO (configuration not stated) | > 60 µM (not active) | 1.16 µM (active) |  | 
N#Cc1ccccc1NC(=O)c1ccccc1OCC(=O)Nc1ccc2c(c1)oc1ccccc12 | 47.3 µM (active) | 2.85 µM (active) |  | 
COc1ccc(CCNC(=O)C2CCN(S(=O)(=O)N3CC(C)CC(C)C3)CC2)cc1OC (configuration not stated) |  |  |  | 22.4 µM (inconclusive)
Clc1ccc(OCCn2ccnc2)cc1Cl | > 60 µM (not active) | 2.49 µM (active) |  | 
CCOC(=O)c1ccc(S(=O)(=O)N2CCN(C)CC2)cc1 |  |  |  | 39.8 µM (inconclusive)
O=C(NCCc1ccccn1)c1cc(C(=O)C2CCCCC2)c[nH]1 |  |  |  | 0.158 µM (inconclusive)
CCN1CCCc2cc(CN(CCN3CCOCC3)C(S)=Nc3ccccc3OC)ccc21 | > 60 µM (not active) | 1.53 µM (active) |  | 
Cc1ccc(C(=N)NOC(=O)Cc2cccs2)cc1 |  |  | 28.2 µM (inconclusive) | 
Cc1ccc(CNC(=O)C2CCCN2C(=O)NCc2ccccc2)cc1 (configuration not stated) |  |  |  | 11.2 µM (inconclusive)
O=C(C1=C[C@H](c2csc3ccccc23)C[C@H](OCc2ccc(CO)cc2)O1)N1CCN(Cc2ccc3c(c2)OCO3)CC1 | > 60 µM (not active) | 0.137 µM (active) |  | 
CN1CCN(c2ccc(S(=O)(=O)N3CCCCC3)cc2NC(=O)CSCc2ccccc2)CC1 | > 60 µM (not active) | 0.315 µM (active) |  | 

Structure (SMILES) | EC50 [1] | EC50 [2] | AC50 [3] | AC50 [4]
COc1ccccc1CN1CCN(Cc2nc(Cc3ccccc3)no2)CC1 | > 30 µM (not active) | 0.754 µM (active) |  | 
CCN(CC)C(=O)C1CCCN(Cc2ccc(N(C)C)cc2)C1 (configuration not stated) | > 60 µM (not active) | 0.296 µM (active) |  | 
CC(=O)O[C@H]1C2=CO[C@H](C)[C@H]3C4C5=C([C@@H](O[C@H]4C)[C@@]23C(=O)[C@H]2O[C@@H]21)[C@H](O)[C@H]1O[C@@H]1C5=O |  |  | 3.98 µM (inconclusive) | 
COc1cccc(-c2csc(N3CCN(C(=S)Nc4ccccc4)CC3)n2)c1 |  |  |  | 0.158 µM (inconclusive)
O=C(NCC1CCCN(Cc2ccccc2F)C1)c1cccc(C(F)(F)F)c1 (configuration not stated) | > 60 µM (not active) | 0.975 µM (active) |  | 
CCCn1c(NC(=O)c2ccc(F)cc2)nc2ccccc21 | > 60 µM (not active) | 3 µM (active) |  | 
Cc1oc(-c2ccccc2F)nc1C[S+]([O-])CC(=O)N1CCC2(CC1)OCCO2 (configuration not stated) |  |  |  | 20 µM (inconclusive)
O=S(=O)(NCCCCCCc1ccccc1)c1cccc2c(Cl)cccc12 |  |  |  | 5.01 µM (inconclusive)
CC(=O)OCC1=C(C(=O)O)N2C(=O)[C@@H](NC(=O)CCC[C@@H](N)C(=O)O)[C@@H]2SC1 |  |  |  | 39.8 µM (inconclusive)
CC(C)NC(=O)N1CC[C@@]2(CCCN(C(=O)c3csnn3)C2)C1 |  |  | 15.8 µM (inconclusive) | 
CCNc1ncc2nc(CCc3ccccc3)c(=O)n(C3CC3)c2n1 |  |  |  | 3.98 µM (inconclusive)
O=C(c1cnccn1)N1CCC2(CCCN(c3ccccc3)C2)CC1 |  |  |  | 39.8 µM (inconclusive)
Cc1nc(N=C(N)NS(=O)(=O)c2ccc([N+](=O)[O-])cc2)nc2ccccc12 | 24.6 µM (active) | 0.452 µM (active) |  | 
CN(C)c1ncc(CN2CCC(CO)(CCCc3ccccc3)CC2)s1 | > 60 µM (not active) | 0.996 µM (active) |  | 
N#CC(C#N)=C(N)/C(C#N)=C/c1ccc(O)cc1 |  |  | 39.8 µM (inconclusive) | 

From ChEMBL document CHEMBL1201862, “PubChem BioAssay data set” (2004)
